Data reported in patent US10293027B2, “Methods for treating metabolic disorders using FGF” (Salk Institute for Biological Studies, priority 2010, dated 2019).

B1: FGF10: other FGF protein tested for comparison with FGF-1 (protein, UniProt O15520 38-208, looked up)
Fibroblast growth factor 10: QALGQDMVSPEATNSSSSSFSSPSSAGRHVRSYNHLQGDVRWRKLFSFTKYFLKIEKNGKVSGTKKENCPYSILEITSVEIGVVAVKAINSNYYLAMNKKGKLYGSKEFNNDCKLKERIEENGYNTYASFNWQHNGRQMYVALNGKGAPRRGQKTRRKNTSAHFLPMVVHS

Columns and labels:
ob/ob male mice = assay: Daily FGF-1 or rosiglitazone treatment of ob/ob mice: fed blood glucose and body composition (Example 5); format: in vivo, mouse; details: fed ob/ob male mice, one hour after treatment; FGF-1 0.5 mg/kg/day s.c., TZD 5 mg/kg/day p.o.; about 400 mg/dl before treatment
Experimental: FIGS. 7A-7H. FGF-1 injection studies in rodents. (A) Fed blood glucose in ob/ob male mice treated with FGF-1 (0.5 mg/kg, s.c.), rosiglitazone (TZD, 5 mg/kg, p.o.), or vehicle. FGF-1 was administered once daily, and blood glucose levels were measured at day 0 (basal levels before FGF-1 injection), day 3, and day 6, 1 hour after injection. The values (±SE) shown are the average of the measurements of 5 animals in a group; (B) Sustained glucose lowering effects of FGF-1: Fed blood glucose levels in ob/ob mice at indicated time points after the last FGF-1 injection at day 6. (C-H): 72 hrs after the sixth dose, another dose was given and effects of FGF-1 and TZD on (C) body weight, (D) total body fat, (E) lean weight, (F) weight gain, (G) liver weight, and (H) heart weight were determined.
In Example 5, ob/ob male mice (8 wk old) were randomized into three groups and treated with daily subcutaneous (s.c.) injections of recombinant mouse FGF-1 (0.5 mg/kg in PBS), oral rosiglitazone (TZD, 5 mg/kg in 0.5% carboxymethyl cellulose), or vehicle. Blood glucose levels were measure in fed animals one hour after treatment. Total body composition analysis was performed using an EchoMRI-100™ (Echo Medical Systems, LLC).
Eight-week-old male ob/ob mice were treated with recombinant mouse FGF-1 (0.5 mg/kg/day, s.c. in 250 μl), rosiglitazone (TZD, 5 mg/kg/day, p.o. in 300 μl), or vehicle control (s.c. vehicle control 0.9% NaCl, 250 μl/mouse; p.o. vehicle control 0.5% CMC, 300 μl/mouse). Blood glucose was measured one hour after treatment at day 3 and day 6 using a standard protocol. (FIG. 7A).
Before treatment, all groups were severely hyperglycemic, as indicated by blood glucose levels of about 400 mg/dl. […] At 6 days, blood glucose levels were even further reduced to around 130-140 mg/dl for both groups. After the sixth dose, blood glucose levels were monitored for another 72 hrs. During this period, both FGF-1- and TZD-treated cohorts maintained normoglycemic levels (<140 mg/dl) for at least 48 hrs (FIG. 7B). At 72 hrs after the sixth dose, a final dose was given, and 12 hrs later, a total body composition analysis was performed by MRI followed by necropsy.

ob/ob mice = assay: Single s.c. injection of human FGF1 or other FGFs, blood glucose in ob/ob mice (Examples 13, 14); format: in vivo, mouse; details: 0.5 mg/kg s.c.
Experimental: FIG. 26. Human recombinant FGF-1 is effective in mice.
FIG. 27. Comparison of FGF1, FGF2, FGF9, and FGF10 effects. Single subcutaneous injection of FGFs (0.5 mg/kg) in ob/ob mice.
As human recombinant FGF-1 is already being used in the clinic, the present methods of using it to treat metabolic disorders offer a straightforward regulatory path to treatment.
As explained above, the FGF family of factors bind to members of the FGFR family of receptors with different specificities. FGF-1 binds preferentially to FGFR1 and FGFR4, and can be internalized into a cell expressing these receptors. To determine if other FGF proteins have similar metabolic effects as FGF-1, we tested blood glucose in ob/ob mice treated with FGF-2, FGF-9, and FGF-10 (0.5 mg/kg s.c.). This combination of FGF proteins binds to the spectrum of FGFRs.

Molecule	blood glucose levels at day three (ob/ob male mice)	blood glucose in ob/ob mice after a single s.c. injection (ob/ob mice)	blood glucose in ob/ob mice after a single s.c. injection (ob/ob mice; listed as hrFGF-1)
CN(CCOc1ccc(CC2SC(=O)NC2=O)cc1)c1ccccn1 (centres unmarked) [rosiglitazone, reference compound]	about 200 mg/dl	–	–
FGF2: other FGF protein tested for comparison with FGF-1 [reference compound]	–	Only FGF1 has glucose normalizing effects	–
human FGF1: human recombinant FGF-1; human protein is 155 amino acids, SwissProt P05230.1	–	normalizes blood glucose	can effectively reduce glucose levels
B1	–	Only FGF1 has glucose normalizing effects	–
